From US20040254162A1, “Oxazolidinone derivatives as antimicrobials” (priority 2001, published 2004)
≈ marks a conversion by molar mass, not a printed value. Where “and” joins values, the source holds several entries; their conditions need not be identical. Equal entries are not always repeated. Where two headings read alike, the source gives them in different places.

What was measured:
Clostridium difficile = test: Agar dilution MIC, anaerobes; format: cell-based; conditions: single isolates, anaerobic agar dilution; for MIC: Clostridioides difficile, read-out: MIC Clostridium difficile
P. acnes = test: Agar dilution MIC, anaerobes; format: cell-based; conditions: single isolates, anaerobic agar dilution; for MIC: Cutibacterium acnes, read-out: MIC P. acnes
[1] = tested on: Prevotella melaninogenica; test: Agar dilution MIC, anaerobes; format: cell-based; conditions: single isolates, anaerobic agar dilution; for MIC: Prevotella melaninogenica, read-out: MIC Prevotella melaninogenica
[2] = tested on: Prevotella (Bacteroides) disiens; test: Agar dilution MIC, anaerobes; format: cell-based; conditions: single isolates, anaerobic agar dilution; for MIC: read-out: MIC Prevotella (Bacteroides) disiens
Prevotella intermedia = test: Agar dilution MIC, anaerobes; format: cell-based; conditions: single isolates, anaerobic agar dilution; for MIC: Prevotella intermedia, read-out: MIC Prevotella intermedia
Eubacterium leutum = test: Agar dilution MIC, anaerobes; format: cell-based; conditions: single isolates, anaerobic agar dilution; for MIC: Eubacterium, read-out: MIC Eubacterium leutum
[3] = tested on: Peptostreptococcus asaccharolyticus; test: Agar dilution MIC, anaerobes; format: cell-based; conditions: single isolates, anaerobic agar dilution
[4] = tested on: Peptostreptococcus prevotii; test: Agar dilution MIC, anaerobes; format: cell-based; conditions: single isolates, anaerobic agar dilution; for MIC: Anaerococcus prevotii, read-out: MIC Peptostreptococcus prevotii
Fusobacterium necrogenes = test: Agar dilution MIC, anaerobes; format: cell-based; conditions: single isolate, anaerobic agar dilution; for MIC: Fusobacterium necrogenes, read-out: MIC Fusobacterium necrogenes
[5] = tested on: Peptostreptococcus magnum; test: Agar dilution MIC, anaerobes; format: cell-based; conditions: single isolates, anaerobic agar dilution
Fusobacterium varium = test: Agar dilution MIC, anaerobes; format: cell-based; conditions: single isolates, anaerobic agar dilution
anaerobic bacteria = test: Agar dilution method for anaerobic bacteria, summary; format: cell-based
Clostridium camis = test: Agar dilution MIC, anaerobes; format: cell-based; conditions: Clostridium; single isolates, anaerobic agar dilution; read-out: MIC Clostridium camis
[6] = tested on: Porphyromonas asaccharolytica; test: Agar dilution MIC, anaerobes; format: cell-based; conditions: Porphyromonas asaccharolytica; single isolate, anaerobic agar dilution; read-out: MIC Porphyromonas asaccharolytica
Porphyromonas gingivalis = test: Agar dilution MIC, anaerobes; format: cell-based; conditions: Porphyromonas gingivalis; single isolate, anaerobic agar dilution; read-out: MIC Porphyromonas gingivalis
Prevotella bivia = test: Agar dilution MIC, anaerobes; format: cell-based; conditions: Prevotella bivia; single isolate, anaerobic agar dilution; read-out: MIC Prevotella bivia
Fusobacterium nucleatum = test: Agar dilution MIC, anaerobes; format: cell-based; conditions: single isolates, anaerobic agar dilution
[7] = tested on: Peptostreptococcus tetradius; test: Agar dilution MIC, anaerobes; format: cell-based; conditions: single isolates, anaerobic agar dilution; for MIC: Anaerococcus tetradius, read-out: MIC Peptostreptococcus tetradius
Bacteroides fragilis = test: Agar dilution MIC, anaerobes; format: cell-based; conditions: single isolates, anaerobic agar dilution; for MIC: Bacteroides fragilis, read-out: MIC Bacteroides fragilis
Clostridium perfringens = test: microbe, parasite or virus in culture; format: cell-based; conditions: for MIC: Clostridium perfringens, read-out: MIC Clostridium perfringens, single isolates, anaerobic agar dilution
Fusobacterium montiferum = test: Agar dilution MIC, anaerobes; format: cell-based; conditions: single isolates, anaerobic agar dilution; for MIC: Fusobacterium, read-out: MIC Fusobacterium montiferum
[8] = tested on: Peptostreptococcus micros; test: Agar dilution MIC, anaerobes; format: cell-based; conditions: single isolates, anaerobic agar dilution
[9] = tested on: Mycobacterium tuberculosis; test: microbe, parasite or virus in culture; conditions: 504 h
[10] = tested on: Mycobacterium tuberculosis
[11] = tested on: Mycobacterium avium intracellulare; test: Agar dilution method, mycobacteria; format: cell-based
[12] = anaerobes, Wilkins Chalgren agar, 48 hour

SMILES | MIC Clostridium difficile (Clostridium difficile) | MIC P. acnes (P. acnes) [µg/mL] | MIC Prevotella melaninogenica [1] [µg/mL] | MIC Prevotella (Bacteroides) disiens [2] [µg/mL] | MIC Prevotella intermedia (Prevotella intermedia) [µg/mL] | MIC Eubacterium leutum (Eubacterium leutum) [µg/mL] | MIC Peptostreptococcus prevotii [4] [µg/mL] | Geometric Mean (anaerobic bacteria; anaerobes) [µg/mL] | MIC Range (anaerobic bacteria; anaerobes) [µg/mL] | MIC (Clostridium camis) [µg/mL] | MIC (Clostridium difficile) [µg/mL] | MIC (P. acnes) [µg/mL] | MIC [6] [µg/mL] | MIC [2] [µg/mL] | MIC (Porphyromonas gingivalis) [µg/mL] | MIC (Prevotella intermedia) [µg/mL] | MIC (Prevotella bivia) [µg/mL] | MIC [4] [µg/mL] | MIC (Fusobacterium necrogenes) [µg/mL] | MIC (Clostridium perfringens) [µg/mL] | further results
CC1(C)S[C@@H]2[C@H](NC(=O)[C@H](N)c3ccc(O)cc3)C(=O)N2[C@H]1C(=O)O [Amox] | 1 µg/mL and 2 µg/mL | 0.25 (≈ 0.684 µM) | 64 (≈ 175 µM) | >128 | 4 (≈ 10.9 µM) | 1 (≈ 2.74 µM) | 0.25 (≈ 0.684 µM) | 1.366 | 0.062 to 256 |  |  |  |  |  |  |  |  |  |  |  | MIC Peptostreptococcus asaccharolyticus [3]: 0.25 µg/mL (≈ 0.684 µM); MIC Fusobacterium necrogenes (Fusobacterium necrogenes): 0.5 µg/mL (≈ 1.37 µM); MIC Peptostreptococcus magnum [5]: 0.25 µg/mL and 0.5 µg/mL; MIC Fusobacterium varium (Fusobacterium varium): 1 µg/mL (≈ 2.74 µM); MIC50 (anaerobic bacteria; [12]): 1 µg/mL (≈ 2.74 µM); MIC90 (anaerobic bacteria; [12]): 256 µg/mL (≈ 701 µM)
COc1c(N2CCNC(C)C2)c(F)cc2c(=O)c(C(=O)O)cn(C3CC3)c12 (stereo not shown) [Gatifloxacin] | 2 µg/mL (≈ 5.33 µM) | 0.125 (≈ 0.333 µM) |  |  |  | 0.5 (≈ 1.33 µM) | 1 (≈ 2.66 µM) | 0.659 | 0.06 to 32 | 0.25 (≈ 0.666 µM) | 1 (≈ 2.66 µM) | 0.25 (≈ 0.666 µM) | 0.25 (≈ 0.666 µM) | 1 (≈ 2.66 µM) | 0.06 (≈ 0.16 µM) | 0.25 (≈ 0.666 µM) | 2 (≈ 5.33 µM) | 0.5 (≈ 1.33 µM) | 0.5 (≈ 1.33 µM) | 1 (≈ 2.66 µM) | MIC (Fusobacterium nucleatum; Fusobacterium nucleatum, read-out: MIC Fusobacterium nucleatum): 0.25 µg/mL (≈ 0.666 µM); MIC Fusobacterium nucleatum (Fusobacterium nucleatum): 0.5 µg/mL (≈ 1.33 µM); MIC (Eubacterium leutum): 0.25 µg/mL (≈ 0.666 µM); MIC [7]: 1 µg/mL (≈ 2.66 µM); MIC Peptostreptococcus tetradius [7]: 0.5 µg/mL (≈ 1.33 µM); MIC (Bacteroides fragilis): 1 µg/mL (≈ 2.66 µM); MIC (Fusobacterium montiferum): 0.25 µg/mL (≈ 0.666 µM); MIC Fusobacterium montiferum (Fusobacterium montiferum): 0.5 µg/mL (≈ 1.33 µM); MIC50 (anaerobic bacteria; anaerobes, Wilkins Chalgren agar, 48 hour, read-out: MIC50): 0.5 µg/mL (≈ 1.33 µM); MIC90 (anaerobic bacteria; anaerobes, Wilkins Chalgren agar, 48 hour, read-out: MIC90): 2 µg/mL (≈ 5.33 µM)
Cc1ncc([N+](=O)[O-])n1CCO [Metronidazole] |  |  | 0.5 (≈ 2.92 µM) | 1 (≈ 5.84 µM) | 0.25 (≈ 1.46 µM) | 0.5 (≈ 2.92 µM) | 1 (≈ 5.84 µM) | 0.48 | 0.062 to 32 | ≤ 0.125 | 0.25 (≈ 1.46 µM) | > 16 | ≤ 0.125 | 0.5 (≈ 2.92 µM) | ≤ 0.125 | 0.5 (≈ 2.92 µM) | 1 (≈ 5.84 µM) | 2 (≈ 11.7 µM) | 0.25 (≈ 1.46 µM) | 1 (≈ 5.84 µM) | MIC [1]: 0.25 µg/mL (≈ 1.46 µM); MIC (Eubacterium leutum): 0.25 µg/mL (≈ 1.46 µM); MIC [7]: 1 µg/mL (≈ 5.84 µM); MIC (Bacteroides fragilis): 0.5 µg/mL (≈ 2.92 µM); MIC Bacteroides fragilis (Bacteroides fragilis): 1 µg/mL (≈ 5.84 µM); MIC ([8]; Parvimonas micra, read-out: MIC Peptostreptococcus micros): 0.25 µg/mL (≈ 1.46 µM); MIC Peptostreptococcus micros [8]: 0.5 µg/mL (≈ 2.92 µM); MIC (Fusobacterium montiferum): ≤ 0.125 µg/mL; MIC (Fusobacterium varium; Fusobacterium varium, read-out: MIC Fusobacterium varium): ≤ 0.125 µg/mL; MIC50 (anaerobic bacteria; 48 h): 0.5 µg/mL (≈ 2.92 µM); MIC90 (anaerobic bacteria; 48 h): 2 µg/mL (≈ 11.7 µM)
CO[C@H]1/C=C/O[C@@]2(C)Oc3c(C)c(O)c4c(O)c(c(/C=N/N5CCN(C)CC5)c(O)c4c3C2=O)NC(=O)/C(C)=C\C=C\[C@H](C)[C@H](O)[C@@H](C)[C@@H](O)[C@@H](C)[C@H](OC(C)=O)[C@@H]1C [Rifampicin] |  |  |  |  |  |  |  |  |  |  |  |  |  |  |  |  |  |  |  |  | MIC50 [9]: 64 µg/mL (≈ 77.8 µM); MIC90 [9]: 64 µg/mL (≈ 77.8 µM); G.M. [10]: 6.35 µg/mL; G.M. [11]: 1.999 µg/mL; MIC50 ([11]; Mycobacterium avium, 504 h, Middlebrook 7H10 agar, 21 days, read-out: MIC50): 1 µg/mL (≈ 1.22 µM); MIC90 ([11]; Mycobacterium avium, 504 h, Middlebrook 7H10 agar, 21 days, read-out: MIC90): 32 µg/mL (≈ 38.9 µM)
CCC[C@@H]1C[C@@H](C(=O)N[C@@H]([C@H]2O[C@H](SC)[C@H](O)[C@@H](O)[C@H]2O)[C@H](C)Cl)N(C)C1 [Clindamycin] | 4 µg/mL (≈ 9.41 µM) |  |  | 4 (≈ 9.41 µM) |  |  | 0.125 (≈ 0.294 µM) | 0.208 | 0.008 to 64 | 0.03 (≈ 0.0706 µM) | 2 (≈ 4.71 µM) | 0.06 (≈ 0.141 µM) | ≤ 0.016 | 8 (≈ 18.8 µM) | ≤ 0.016 | ≤ 0.016 | > 32 | 0.25 (≈ 0.588 µM) | 0.03 (≈ 0.0706 µM) | 1 (≈ 2.35 µM) | MIC [1]: ≤ 0.016 µg/mL; MIC Clostridium perfringens (Clostridium perfringens; single isolates, anaerobic agar dilution): 0.5 µg/mL (≈ 1.18 µM); MIC50 (anaerobic bacteria; 48 h): 0.125 µg/mL (≈ 0.294 µM); MIC90 (anaerobic bacteria; 48 h): 8 µg/mL (≈ 18.8 µM)
